Values of other authors as cited in patent publication EP1526849B1 (A. MENARINI INDUSTRIE FARMACEUTICHE RIUNITE S.R.L., priority 2002, dated 2004).

Settings: gel with benzofenone-3 1%; 8 hours solar light; JP60155111 example 1

**Q.** Which “percentage of ketoprofen not broken down” value does the source give for `CC(C(=O)O)c1cccc(C(=O)c2ccccc2)c1` (stereo not shown) [ketoprofen] here?
**A.** Its value is 90%.
